Results: paper PMC5849211 (Chemical Science, 2017)

System: Saos-2 cells
Assay: MTT assay, Saos-2 cells
Type: cell-based, human
Settings: 0.5 mM levamisole, 3 h + 24 h, n = 3

c1ccc([C@H]2CN3CCSC3=N2)cc1 [levamisole]
cell viability, Saos-2, levamisole alone: no obvious effect on the cell viability alone
